The NIST ThermoML archive (doi:10.1021/je5009894)

Experiment: mn = molality of the nth substance listed, in mol/kg
Details: 298.15 K, 101 kPa, Liquid, Pycnometric method

O=[N+]([O-])[O-].O=[N+]([O-])[O-].O=[N+]([O-])[O-].[Al+3] [aluminum trinitrate] + O
Details	mass density [kg/m3]
m1 = 0.5413	1081.6
m1 = 0.8667	1128.8
m1 = 1.007	1148.4
m1 = 1.507	1213.3
m1 = 2.012	1288.7
m1 = 2.793	1355.7

O=[N+]([O-])[O-].O=[N+]([O-])[O-].O=[N+]([O-])[O-].[Fe+3] [ferric nitrate] + O
Details	mass density [kg/m3]
m1 = 0.1102	1017.4
m1 = 0.4672	1079.1
m1 = 1.183	1194.2
m1 = 1.476	1235.5
m1 = 1.907	1293.8
m1 = 2.442	1363.6

O=[N+]([O-])[O-].O=[N+]([O-])[O-].[Mn+2] [manganese nitrate] + O
Details	mass density [kg/m3]
m1 = 0.0287	1000.9
m1 = 0.1948	1023
m1 = 0.5661	1069.9
m1 = 1.373	1162.1
m1 = 2.006	1224
m1 = 3.484	1359
